ChEMBL document CHEMBL1201862, “PubChem BioAssay data set” (2004)
Active and inactive are the calls of the source.

How the values were obtained:
[1] = molecular target: T1, Sentrin-specific protease 7 (Homo sapiens, UniProt Q9BQF6); experiment: inhibition of human SENP7 cleavage activity – biochemical, luminescence, SAR follow-up (AID 504497); format: functional
T1 sequence (Q9BQF6 whole entry): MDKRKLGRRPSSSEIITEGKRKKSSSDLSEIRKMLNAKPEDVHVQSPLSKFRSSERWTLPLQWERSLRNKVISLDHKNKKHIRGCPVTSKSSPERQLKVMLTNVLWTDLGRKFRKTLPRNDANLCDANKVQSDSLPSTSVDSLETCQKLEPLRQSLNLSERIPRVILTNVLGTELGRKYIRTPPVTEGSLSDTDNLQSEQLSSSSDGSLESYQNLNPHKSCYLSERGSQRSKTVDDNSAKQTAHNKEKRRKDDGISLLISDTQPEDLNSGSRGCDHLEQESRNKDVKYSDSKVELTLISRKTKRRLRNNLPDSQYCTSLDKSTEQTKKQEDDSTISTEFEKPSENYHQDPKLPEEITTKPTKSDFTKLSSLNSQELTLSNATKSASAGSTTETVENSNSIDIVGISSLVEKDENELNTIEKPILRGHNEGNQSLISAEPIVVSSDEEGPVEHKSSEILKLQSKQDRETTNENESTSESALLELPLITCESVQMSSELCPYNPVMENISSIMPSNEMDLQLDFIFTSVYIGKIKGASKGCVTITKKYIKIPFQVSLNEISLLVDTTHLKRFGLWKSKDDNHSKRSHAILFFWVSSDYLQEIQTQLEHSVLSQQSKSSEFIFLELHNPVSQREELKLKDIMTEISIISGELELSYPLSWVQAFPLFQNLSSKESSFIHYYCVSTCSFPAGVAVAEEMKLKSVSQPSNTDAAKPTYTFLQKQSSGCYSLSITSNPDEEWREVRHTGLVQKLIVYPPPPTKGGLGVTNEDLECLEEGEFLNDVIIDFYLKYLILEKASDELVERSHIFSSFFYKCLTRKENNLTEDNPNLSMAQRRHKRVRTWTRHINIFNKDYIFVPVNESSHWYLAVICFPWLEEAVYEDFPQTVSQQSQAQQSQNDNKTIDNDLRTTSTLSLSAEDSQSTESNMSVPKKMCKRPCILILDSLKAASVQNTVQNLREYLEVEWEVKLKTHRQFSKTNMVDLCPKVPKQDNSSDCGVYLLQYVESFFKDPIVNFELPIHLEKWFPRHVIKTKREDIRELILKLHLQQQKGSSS

[2] = molecular target: T2, Sentrin-specific protease 8 (Homo sapiens, UniProt Q96LD8); experiment: inhibition of human SENP8 cleavage activity – biochemical, luminescence, SAR follow-up (AID 504501); format: functional
T2 sequence (Q96LD8 whole entry): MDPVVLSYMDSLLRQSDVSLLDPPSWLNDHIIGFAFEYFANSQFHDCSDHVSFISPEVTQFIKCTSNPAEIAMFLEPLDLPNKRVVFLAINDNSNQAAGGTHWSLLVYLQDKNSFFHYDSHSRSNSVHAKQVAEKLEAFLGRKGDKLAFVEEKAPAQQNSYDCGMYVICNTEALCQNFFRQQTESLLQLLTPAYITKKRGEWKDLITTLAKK

[3] = molecular target: T3, Caspase-3 (Homo sapiens, UniProt P42574); experiment: SAR Analysis of small molecule inhibitors of Sentrin-specific proteases (SENPs) using a Caspase-3 Selectivity assay. [Related pubchem assays (depositor defined):AID2540, AID2599, AID434973, AID489001]; format: functional
T3 sequence (P42574 whole entry): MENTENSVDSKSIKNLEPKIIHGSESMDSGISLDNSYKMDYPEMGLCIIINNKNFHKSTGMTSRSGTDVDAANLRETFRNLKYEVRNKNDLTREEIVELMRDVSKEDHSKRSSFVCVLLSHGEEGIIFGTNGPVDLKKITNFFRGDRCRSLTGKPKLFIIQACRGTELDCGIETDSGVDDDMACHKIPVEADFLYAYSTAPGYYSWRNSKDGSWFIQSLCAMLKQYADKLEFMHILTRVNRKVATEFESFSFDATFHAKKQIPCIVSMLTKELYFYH

[4] = molecular target: T4, Sentrin-specific protease 6 (Homo sapiens, UniProt Q9GZR1); experiment: SAR Analysis of small molecule inhibitors of Sentrin-specific protease 6 (SENP6) using a Luminescent assay. [Related pubchem assays (depositor defined):AID2582, AID2599]; format: functional
T4 sequence (Q9GZR1 whole entry): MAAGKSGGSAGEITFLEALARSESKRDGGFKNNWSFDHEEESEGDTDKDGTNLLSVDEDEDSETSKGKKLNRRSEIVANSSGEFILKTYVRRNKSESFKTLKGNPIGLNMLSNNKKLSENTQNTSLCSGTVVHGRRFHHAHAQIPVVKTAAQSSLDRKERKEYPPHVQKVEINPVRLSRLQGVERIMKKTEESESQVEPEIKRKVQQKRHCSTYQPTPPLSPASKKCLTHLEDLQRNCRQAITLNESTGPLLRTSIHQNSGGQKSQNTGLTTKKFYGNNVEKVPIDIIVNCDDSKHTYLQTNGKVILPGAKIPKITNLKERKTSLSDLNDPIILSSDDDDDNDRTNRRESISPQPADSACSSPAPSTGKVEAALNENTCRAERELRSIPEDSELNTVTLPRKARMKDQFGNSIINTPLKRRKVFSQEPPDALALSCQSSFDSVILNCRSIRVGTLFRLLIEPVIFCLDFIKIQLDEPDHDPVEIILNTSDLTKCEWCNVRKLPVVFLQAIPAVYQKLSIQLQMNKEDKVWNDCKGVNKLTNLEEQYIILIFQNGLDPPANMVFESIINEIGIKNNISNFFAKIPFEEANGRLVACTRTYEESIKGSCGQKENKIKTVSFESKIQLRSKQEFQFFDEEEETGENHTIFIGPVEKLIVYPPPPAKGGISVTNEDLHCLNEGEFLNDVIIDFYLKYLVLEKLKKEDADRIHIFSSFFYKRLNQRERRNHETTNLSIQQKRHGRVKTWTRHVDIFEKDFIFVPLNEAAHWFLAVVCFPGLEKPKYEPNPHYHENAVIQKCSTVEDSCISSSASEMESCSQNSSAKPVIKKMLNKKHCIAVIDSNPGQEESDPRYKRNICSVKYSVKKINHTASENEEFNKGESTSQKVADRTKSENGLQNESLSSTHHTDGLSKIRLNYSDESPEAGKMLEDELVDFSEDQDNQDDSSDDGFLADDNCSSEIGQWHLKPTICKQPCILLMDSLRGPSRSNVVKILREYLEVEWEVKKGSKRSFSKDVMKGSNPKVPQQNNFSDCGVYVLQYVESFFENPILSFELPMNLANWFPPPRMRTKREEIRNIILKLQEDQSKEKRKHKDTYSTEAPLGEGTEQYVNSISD

[5] = molecular target: T5, Microphthalmia-associated transcription factor (Homo sapiens, UniProt O75030); experiment: reducers of TRPM1 reporter luminescence, concentration series – cell-based, SK-MEL-5, cherry-picked, set 3, MITF inhibitor project, dose response (AID 493073); format: functional;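 note: SK-MEL-5 melanoma cells with luciferase driven by the MITF target TRPM1 promoter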
T5 sequence (O75030 whole entry): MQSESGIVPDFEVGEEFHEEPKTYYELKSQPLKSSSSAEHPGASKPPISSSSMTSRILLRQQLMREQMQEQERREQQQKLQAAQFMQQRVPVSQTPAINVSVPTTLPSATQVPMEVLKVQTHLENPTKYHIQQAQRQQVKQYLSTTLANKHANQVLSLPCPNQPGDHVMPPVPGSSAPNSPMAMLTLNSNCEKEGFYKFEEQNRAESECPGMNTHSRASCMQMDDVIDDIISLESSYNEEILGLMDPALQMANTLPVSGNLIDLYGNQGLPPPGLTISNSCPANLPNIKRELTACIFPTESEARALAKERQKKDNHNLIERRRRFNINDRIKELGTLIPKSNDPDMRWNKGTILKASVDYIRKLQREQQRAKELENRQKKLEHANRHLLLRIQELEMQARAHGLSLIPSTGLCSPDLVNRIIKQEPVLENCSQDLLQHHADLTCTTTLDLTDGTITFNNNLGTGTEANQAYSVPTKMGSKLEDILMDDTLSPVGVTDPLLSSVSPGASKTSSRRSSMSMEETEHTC

[6] = molecular target: Serine/threonine-protein phosphatase (Candida dubliniensis (strain CD36 / CBS 7987 / NCPF 3949 / NRRLY-17841) (Yeast), UniProt B9W6M3); experiment: blockers of CaCl2-induced CDRE-lacZ signaling – S. cerevisiae, luminescence, secondary, dose response (AID 2388); format: functional, cell-based;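 note: yeast reporter cells carrying a calcineurin-responsive lacZ construct stimulated with calcium chloride; luminescent beta-galactosidase reporter signal in whole cells rather than isolated phosphatase activity; potency for inhibition where a drop in reporter signal means calcineurin blockade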
Sequence of Serine/threonine-protein phosphatase (B9W6M3 whole entry): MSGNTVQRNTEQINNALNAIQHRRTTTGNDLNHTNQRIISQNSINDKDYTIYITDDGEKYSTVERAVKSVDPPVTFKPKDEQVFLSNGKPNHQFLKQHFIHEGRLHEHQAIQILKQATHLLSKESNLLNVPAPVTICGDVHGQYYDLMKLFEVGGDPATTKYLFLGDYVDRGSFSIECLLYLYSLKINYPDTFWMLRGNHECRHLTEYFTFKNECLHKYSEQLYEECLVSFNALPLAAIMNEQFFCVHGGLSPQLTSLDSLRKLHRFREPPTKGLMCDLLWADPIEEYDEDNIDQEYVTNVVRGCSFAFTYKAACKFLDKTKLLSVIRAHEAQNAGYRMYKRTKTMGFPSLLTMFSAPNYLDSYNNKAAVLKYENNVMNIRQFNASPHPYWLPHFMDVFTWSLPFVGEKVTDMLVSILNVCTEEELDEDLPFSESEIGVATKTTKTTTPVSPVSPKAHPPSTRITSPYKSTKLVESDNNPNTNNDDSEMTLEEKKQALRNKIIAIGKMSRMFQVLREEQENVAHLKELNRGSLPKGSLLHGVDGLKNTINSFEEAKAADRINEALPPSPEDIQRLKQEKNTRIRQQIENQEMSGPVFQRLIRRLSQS

[7] = fluconazole-exposed Candida albicans growth modulators – fluorescence, retest, confirmation (AID 2467); format: functional, cell-based
[8] = NIH-3T3 fibroblast cytotoxicity, dose response, cytotoxicity control, cell-based, fluorescence, Alamar Blue, secondary assay (AID 2327); format: functional;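 note: NIH-3T3 mouse fibroblasts cultured with fluconazole at 8 µg/mL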
[9] = molecular target: ATP-dependent molecular chaperone HSP82 (Candida albicans (strain WO-1) (Yeast), UniProt C4YTQ8); experiment: steroid-induced GRE reporter decrease in yeast – S. cerevisiae, luminescence, Hsp90 inhibitor project, dose response (AID 2400); format: functional, cell-based;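 note: beta-galactosidase luminescence from glucocorticoid response element reporter as proxy for Hsp90 function; inhibitor potency where signal loss means Hsp90 inhibition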
Sequence of ATP-dependent molecular chaperone HSP82 (C4YTQ8 whole entry): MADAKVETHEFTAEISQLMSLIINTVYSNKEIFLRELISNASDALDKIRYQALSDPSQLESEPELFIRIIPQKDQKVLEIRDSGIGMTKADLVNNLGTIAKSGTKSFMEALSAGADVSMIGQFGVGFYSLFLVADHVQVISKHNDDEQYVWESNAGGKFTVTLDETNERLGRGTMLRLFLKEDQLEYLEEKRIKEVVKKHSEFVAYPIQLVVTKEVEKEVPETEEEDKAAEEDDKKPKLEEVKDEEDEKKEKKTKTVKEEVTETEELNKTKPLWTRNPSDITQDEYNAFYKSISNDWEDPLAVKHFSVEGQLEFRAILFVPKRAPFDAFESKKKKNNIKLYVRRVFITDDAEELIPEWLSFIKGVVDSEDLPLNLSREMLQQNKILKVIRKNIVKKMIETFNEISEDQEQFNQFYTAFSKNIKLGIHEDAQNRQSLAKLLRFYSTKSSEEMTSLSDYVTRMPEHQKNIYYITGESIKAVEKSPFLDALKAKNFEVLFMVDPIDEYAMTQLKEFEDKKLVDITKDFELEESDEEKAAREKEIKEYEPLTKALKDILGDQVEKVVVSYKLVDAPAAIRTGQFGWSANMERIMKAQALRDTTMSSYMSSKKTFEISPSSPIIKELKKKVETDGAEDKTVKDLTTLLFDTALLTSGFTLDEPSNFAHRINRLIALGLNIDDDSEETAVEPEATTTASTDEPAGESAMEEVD

[10] = molecular target: Beta-lactamase (Pseudomonas aeruginosa, UniProt Q79MP6);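 note: biochemical dose-response test of metallo-beta-lactamase enzyme inhibition, read out by epi-absorbance; purified recombinant IMP-1 metallo-beta-lactamase with nitrocefin as substrate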
Sequence of Beta-lactamase (Pseudomonas aeruginosa, UniProt Q79MP6) (Q79MP6 whole entry): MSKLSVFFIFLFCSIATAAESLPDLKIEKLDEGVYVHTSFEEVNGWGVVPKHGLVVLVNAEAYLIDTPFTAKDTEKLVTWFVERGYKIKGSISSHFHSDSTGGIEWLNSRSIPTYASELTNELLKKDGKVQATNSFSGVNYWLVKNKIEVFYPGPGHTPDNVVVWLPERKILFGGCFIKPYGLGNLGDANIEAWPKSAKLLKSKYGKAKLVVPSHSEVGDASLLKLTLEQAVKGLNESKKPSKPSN

[11] = molecular target: Beta-lactamase (Salmonella choleraesuis (strain SC-B67), UniProt Q5J463)
Sequence of Beta-lactamase (Salmonella choleraesuis (strain SC-B67), UniProt Q5J463) (Q5J463 whole entry): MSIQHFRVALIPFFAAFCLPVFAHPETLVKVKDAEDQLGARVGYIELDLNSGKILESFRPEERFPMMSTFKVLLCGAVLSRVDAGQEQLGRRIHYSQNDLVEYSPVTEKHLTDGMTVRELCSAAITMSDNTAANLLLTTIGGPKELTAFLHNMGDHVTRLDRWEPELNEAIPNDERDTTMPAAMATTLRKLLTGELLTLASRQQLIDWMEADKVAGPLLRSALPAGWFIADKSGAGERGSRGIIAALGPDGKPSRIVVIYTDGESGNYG

[12] = Trypanosoma cruzi growth suppression in host cells – NIH3T3 host cells, beta-gal luminescence, confirmation (AID 2044); format: functional, cell-based;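 note: intracellular parasites grown in NIH/3T3 mouse fibroblasts as host cells; luminescent beta-galactosidase reporter signal from transgenic T. cruzi replicating inside host cells; inhibitors lower the luminescence signal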
[13] = NIH3T3 cell viability loss – ATP luminescence, mouse fibroblasts, counter-screen, dose response (AID 2010); format: functional, cell-based;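 note: cells exposed to compound for about 90 hours before reading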
[14] = cells
[15] = molecular target: T6, COUP transcription factor 2 (Homo sapiens, UniProt P24468); experiment: Luminescence-based cell-based high throughput dose response assay to identify inhibitors of COUP-TFII (NR2F2).; format: functional;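 note: HEK293 cells transiently cotransfected with COUP-TFII expression vector and reporter; luciferase reporter luminescence driven by COUP-TFII from the pX2-168 reporter plasmid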
T6 sequence (P24468 whole entry): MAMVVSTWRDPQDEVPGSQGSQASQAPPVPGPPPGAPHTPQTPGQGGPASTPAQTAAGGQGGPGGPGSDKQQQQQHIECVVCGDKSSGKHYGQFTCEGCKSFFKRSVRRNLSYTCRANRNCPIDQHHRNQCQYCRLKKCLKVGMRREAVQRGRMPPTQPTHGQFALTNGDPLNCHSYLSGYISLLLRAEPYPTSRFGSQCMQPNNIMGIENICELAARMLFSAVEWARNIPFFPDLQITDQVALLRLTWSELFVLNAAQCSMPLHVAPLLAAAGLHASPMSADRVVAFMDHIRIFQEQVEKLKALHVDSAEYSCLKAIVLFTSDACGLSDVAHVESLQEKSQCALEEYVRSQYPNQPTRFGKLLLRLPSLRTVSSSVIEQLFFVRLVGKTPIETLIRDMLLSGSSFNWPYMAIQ

[16] = HEK-293T viability loss, compound-treated – cell-based, uHTS hits, cytotoxicity control for B/T-cell NF-kB inhibitor project, dose response (AID 489019); format: functional;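 note: IC50 reflects cytotoxicity as loss of cell viability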
[17] = system: Jurkat; experiment: blockers of NF-kB activation in T cells – Jurkat, luciferase reporter, luminescence, B- and T-cell, dose response (AID 489004); format: functional, cell-based; details: Homo sapiens;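 note: NF-kB luciferase reporter Jurkat cells stimulated with PMA plus ionomycin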
[18] = molecular target: T7, DNA repair protein RAD52 homolog (Homo sapiens, UniProt P43351); format: functional, biochemical
T7 sequence (P43351 whole entry): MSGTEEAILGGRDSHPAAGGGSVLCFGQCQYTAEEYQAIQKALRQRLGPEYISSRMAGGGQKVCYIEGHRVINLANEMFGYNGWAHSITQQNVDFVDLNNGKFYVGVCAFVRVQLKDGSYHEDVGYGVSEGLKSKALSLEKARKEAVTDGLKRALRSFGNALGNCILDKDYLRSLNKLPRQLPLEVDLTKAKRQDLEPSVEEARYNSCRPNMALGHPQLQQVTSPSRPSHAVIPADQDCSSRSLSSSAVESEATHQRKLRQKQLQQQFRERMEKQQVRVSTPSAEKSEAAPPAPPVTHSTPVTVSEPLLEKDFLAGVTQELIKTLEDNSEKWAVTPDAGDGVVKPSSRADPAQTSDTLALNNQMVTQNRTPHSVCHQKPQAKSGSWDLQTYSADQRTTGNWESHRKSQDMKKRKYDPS

Oc1ccc(Br)cc1/C=N/Nc1cc(N2CCCC2)nc(N2CCCC2)n1
IC50 [1]: > 99 µM (inactive) | IC50 [2]: > 99 µM (inactive) | IC50 [3]: > 99 µM (inactive) | IC50 [4]: > 99 µM (inactive)

CC(C)n1cc(/C=C/c2cc[n+](C)cc2)c2ccccc21
AC50 [5]: 8.14 µM (active) | EC50 [6]: > 180 µM (inactive) | EC50 [7]: 0.634 µM (active) | EC50 [8]: 130 µM (inconclusive) | EC50 [9]: > 150 µM (inactive) | IC50 [10]: 41.8 µM (inactive) | IC50 [11]: 40.1 µM (inactive)

CC[n+]1c(C=C2C=C(C)OC(C)=C2)sc2ccccc21
EC50 [6]: 29.6 µM (active) | EC50 [7]: 0.239 µM (active) | EC50 [8]: 126 µM (active) | EC50 [12]: < 0.1 µM (active) | EC50 [13]: > 60 µM (not active) | EC50 [9]: 55.9 µM (active) | EC50 [14]: 0.006 µM (active) | IC50 [15]: 4.51 µM (active) | IC50 [16]: > 80 µM (inactive) | IC50 [17]: 3.99 µM (active) | AC50 [18]: 8.17 µM (active)
